According to patent US9174991B2, “Crystalline form of pemetrexed disodium” (Azad Pharmaceutical Ingredients AG, priority 2009, dated 2015):
Structures can show the parent of a compound that is named as a salt. Where two headings read alike, the source gives them in different places.

How the values were obtained:
[1] = starting material, before storage
Protocol: HPLC analysis was done on an Agilent 1100 system equipped with DAD detector using a Zorbax SB-Phenyl column (150×4.6 mm, 3 μm). Measurements were done at 230 nm wavelengths at 25° C. using a flow of 1.0 mL/min and 8 min post-run time. As mobile phase water containing 0.03% TFA and acetonitrile containing 0.025% TFA were used, solvents were HPLC grade. Sample preparation: 10 mg sample in 25 mL water:ACN=1:1, 5 uL injection. Retention time Pemetrexed Disodium: 10.3 min.
PXRD: Routine PXRD measurements were carried out on a Bruker AXS D8Advance diffractometer equipped with CuKα source with CuKβ filter and a VANTEC detector (Ser. No.: 202964). Measurement parameters: 3° 2theta to 39.9° 2theta, step time: 2s, step size: 0.022°, T=25° C., X-ray generator: 35 kV/40 mA.

[2] = 70° C., 5 mbar
Protocol: To investigate the stability of the different forms of Pemetrexed Disodium a stability test concerning storage at different relative humidity, storage in the presence of light and stability under drying conditions was carried out.
Four samples were stored at 70° 5 mbar in laboratory vacuum oven. IPC were taken after 2 d, 9 d
HPLC analysis was done on an Agilent 1100 system equipped with DAD detector using a Zorbax SB-Phenyl column (150×4.6 mm, 3 μm). Measurements were done at 230 nm wavelengths at 25° C. using a flow of 1.0 mL/min and 8 min post-run time. […] Sample preparation: 10 mg sample in 25 mL water:ACN=1:1, 5 uL injection.

[3] = not given; remark: listed apart in the source
[4] = Barnett et al., Organic Process Research & Development, 1999, 3, 184-188; cited from earlier work
[5] = 5% to 12% relative humidity, dark, air, 2 d, measured 11.7% (Form A 5.8%), 23° C.
[6] = 5% to 12% relative humidity, dark, air, 5 d, measured 9.5% (Form A 5.3%), 24° C.
[7] = 5% to 12% relative humidity, dark, air, 9 d, measured 9% (Form A 6%), 24° C.
[8] = 5% to 12% relative humidity, dark, air, 16 d, measured 8.5% (Form A 5.8%), 24° C.
[9] = 27% to 33% relative humidity, dark, air, 2 d, measured 29.8% (Form A 28%), 23° C.
[10] = 27% to 33% relative humidity, dark, air, 5 d, measured 29% (Form A 27%), 24° C.
[11] = 27% to 33% relative humidity, dark, air, 9 d, measured 31% (Form A 30%), 24° C.
[12] = 27% to 33% relative humidity, dark, air, 16 d, measured 30.4% (Form A 28.7%), 24° C.
[13] = 39% to 50% relative humidity, dark, air, 2 d, measured 41.1% (Form A 39%), 23° C.
[14] = 39% to 50% relative humidity, dark, air, 5 d, measured 42.8% (Form A 38.6%), 24° C.
[15] = 39% to 50% relative humidity, dark, air, 9 d, measured 48% (Form A 47%), 24° C.
[16] = 60% to 70% relative humidity, dark, air, 5 d, measured 63% (Form A 57%), 24° C.
[17] = 60% to 70% relative humidity, dark, air, 9 d, measured 69% (Form A 68%), 24° C.
[18] = 60% to 70% relative humidity, dark, air, 16 d, measured 66.9% (Form A 67.2%), 24° C.
[19] = daylight, text says after 16 d, listed as Pemetrexed Disodium Form IV

SMILES: Nc1nc(O)c2c(CCc3ccc(C(=O)N[C@@H](CCC(=O)O)C(=O)O)cc3)c[nH]c2n1 [Form IV, disodium N-[4-[2-(2-amino-4,7-dihydro-4-oxo-3H-pyrrolo[2,3-d]-pyrimidin-5-yl)ethyl]benzoyl]-L-glutamic acid salt]
- HPLC-purity (10.5 min) [1]: 99.85%
- PXRD [1]: Form IV
- HPLC-purity (10.5 min) ([2]; 2 d): 99.70%
- PXRD ([2]; 2 d): Form IV
- HPLC-purity (10.5 min) ([2]; 9 d): 99.80%
- change in water content upon vacuum drying (in words) ([2]; after 9 d): no significant change
- change in HPLC-purity upon vacuum drying (in words) ([2]; up to 9 d, listed as Pemetrexed Disodium Form IV): no significant change
- change in water content (in words) (5% to 12% rel. humidity (for Form A and Form IV: 7% to 12%), up to 16 d, listed as Pemetrexed Disodium Form IV): does not show significant change
- H2O (KFT) [5]: 1.0%
- HPLC-purity (10.5 min) [5]: 99.66%
- PXRD [5]: Form IV
- HPLC-purity (10.5 min) [6]: 99.60%
- PXRD [6]: Form IV
- HPLC-purity (10.5 min) [7]: 99.83%
- PXRD [7]: Form IV
- HPLC-purity [8]: 99.88%
- PXRD [8]: Form IV
- change in water content (in words) (27% to 33% rel. humidity, up to 16 d, listed as Pemetrexed Disodium Form IV): does not show significant change
- HPLC-purity [9]: 99.81%
- PXRD [9]: Form IV
- HPLC-purity [10]: 99.73%
- PXRD [10]: Form IV
- HPLC-purity [11]: 99.82%
- PXRD [11]: Form IV
- HPLC-purity [12]: 99.86%
- PXRD [12]: Form D
- HPLC-purity [13]: 99.84%
- PXRD [13]: Form IV
- HPLC-purity [14]: 99.78%
- PXRD [14]: Form IV
- HPLC-purity [15]: 99.76%
- PXRD [15]: Form IV
- PXRD (39% to 50% relative humidity, dark, air, 9 d, measured 48% (Form A 47%), 24° C., listed as Pemetrexed Disodium Form IV): without significant change
- HPLC-purity (39% to 50% relative humidity, dark, air, 16 d, measured 47.3% (Form A 46.4%), 24° C.): 99.81%
- PXRD (39% to 50% relative humidity, dark, air, 16 d, measured 47.3% (Form A 46.4%), 24° C., listed as Pemetrexed Disodium Form IV): traces of Pemetrexed Disodium Heptahydrate
- change in water content (in words) (40% to 50% rel. humidity, up to 16 d, listed as Pemetrexed Disodium Form IV): slight increase
- change in water content (in words) (60% to 70% rel. humidity, after 2 d): significant increase
- HPLC-purity (60% to 70% relative humidity, dark, air, 2 d, measured 61%, 22° C. (Form A 54%, 23° C)): 99.83%
- PXRD (60% to 70% relative humidity, dark, air, 2 d, measured 61%, 22° C. (Form A 54%, 23° C), listed as Pemetrexed Disodium Form IV): partial transformation to Pemetrexed Disodium Heptahydrate
- HPLC-purity [16]: 99.75%
- PXRD [16]: Heptahydrate
- PXRD (60% to 70% relative humidity, dark, air, 5 d, measured 63% (Form A 57%), 24° C., listed as Pemetrexed Disodium Form IV): Transformation to Pemetrexed Disodium Heptahydrate is complete
- HPLC-purity [17]: 99.85%
- PXRD [17]: Heptahydrate
- HPLC-purity [18]: 99.81%
- PXRD [18]: Heptahydrate
- change in HPLC purity in any of the samples (in words) (all relative humidities tested (5% to 70%), up to 16 d): No significant change
- HPLC-purity ([3]; daylight study, Start): 99.83%
- change in HPLC purity in the presence of light (in words) [3, 19]: slight decrease
- change in color in the presence of light (in words) [3, 19]: without significant change
- HPLC-purity ([3]; double PE plastic bags, daylight, 20° C. to 25° C., 15 d): 99.44%

SMILES: Nc1nc(O)c2c(CCc3ccc(C(=O)N[C@@H](CCC(=O)O)C(=O)O)cc3)c[nH]c2n1 [disodium salt II, disodium N-[4-[2-(2-amino-4,7-dihydro-4-oxo-3H-pyrrolo[2,3-d]-pyrimidin-5-yl)ethyl]benzoyl]-L-glutamic acid salt]
- hygroscopicity (in words) [4]: hygroscopic solid
